This is an account of results in ChEMBL document CHEMBL5370567 (Bioorg Med Chem, 2023).

As a reminder, the EC50 is the concentration giving half of the maximal effect.

The target in this assay is T1, G-protein coupled bile acid receptor 1 (Homo sapiens, UniProt Q8TDU6).
T1 sequence (Q8TDU6 whole entry): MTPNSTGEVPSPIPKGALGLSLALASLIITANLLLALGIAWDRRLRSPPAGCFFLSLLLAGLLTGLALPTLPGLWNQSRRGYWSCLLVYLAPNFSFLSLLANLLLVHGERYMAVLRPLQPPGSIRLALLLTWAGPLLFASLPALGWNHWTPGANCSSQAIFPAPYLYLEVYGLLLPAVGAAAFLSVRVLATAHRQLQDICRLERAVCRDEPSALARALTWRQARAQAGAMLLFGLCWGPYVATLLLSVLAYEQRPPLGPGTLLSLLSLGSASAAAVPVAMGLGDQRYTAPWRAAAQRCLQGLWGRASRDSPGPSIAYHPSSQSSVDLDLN
Kind of assay: Positive allosteric modulator activity at human TGR5 expressed in HEK293T cells assessed as increase in cAMP accumulation incubated for 1 hr at 37 degC and further incubated for 1 hr at room temperature by glosensor cAMP accumulation assay. Type of assay: functional, cell-based.
Take `CO[C@@H]1C[C@@H]2C[C@H](O)CC[C@]2(C)[C@H]2C[C@H](O)[C@]3(C)[C@@H]([C@H](C)CCC(=O)Oc4cccc5ccccc45)CC[C@H]3[C@H]12`: the concentration giving a half-maximal response (EC50) is 48.5 µM.

For the compound `CO[C@@H]1C[C@@H]2C[C@H](O)CC[C@]2(C)[C@H]2CC(=O)[C@]3(C)[C@@H]([C@H](C)CCC(=O)Oc4ccc5ccccc5c4)CC[C@H]3[C@H]12`, the half-maximal effective concentration (EC50) was more than 100 µM.

Take `CO[C@@H]1C[C@@H]2C[C@H](O)CC[C@]2(C)[C@H]2C[C@H](O)[C@]3(C)[C@@H]([C@H](C)CCC(=O)Oc4ccc5ccccc5c4)CC[C@H]3[C@H]12`: the half-maximal effective concentration (EC50) is more than 100 µM.

On to `CO[C@@H]1C[C@@H]2C[C@H](O)CC[C@]2(C)[C@H]2CC(=O)[C@]3(C)[C@@H]([C@H](C)CCC(=O)OCc4ccccc4)CC[C@H]3[C@H]12`, for which the EC50 was 76.5 µM.

For `COC(=O)CC[C@@H](C)[C@H]1CC[C@H]2[C@@H]3[C@H](OC)C[C@@H]4C[C@H](O)CC[C@]4(C)[C@H]3C[C@H](O)[C@]12C`, the EC50 was found to be 8 µM.

`CO[C@@H]1C[C@@H]2C[C@H](O)CC[C@]2(C)[C@H]2CC(=O)[C@]3(C)[C@@H]([C@H](C)CCC(=O)OC4CCCC4)CC[C@H]3[C@H]12`: the half-maximal effective concentration (EC50) was determined as 23 µM.

With `CO[C@@H]1C[C@@H]2C[C@H](O)CC[C@]2(C)[C@H]2CC(=O)[C@]3(C)[C@@H]([C@H](C)CCC(=O)OCC4CC4)CC[C@H]3[C@H]12`, the concentration for a half-maximal effect (EC50) worked out at 9.5 µM.

On to `CO[C@@H]1C[C@@H]2C[C@H](O)CC[C@]2(C)[C@H]2CC(=O)[C@]3(C)[C@@H]([C@H](C)CCC(=O)Oc4ccccc4)CC[C@H]3[C@H]12`, for which the 50% effective concentration (EC50) was determined as 5.5 µM.

Take `CO[C@@H]1C[C@@H]2C[C@H](O)CC[C@]2(C)[C@H]2C[C@H](O)[C@]3(C)[C@@H]([C@H](C)CCC(=O)Oc4ccccc4)CC[C@H]3[C@H]12`: the EC50 turned out to be 18.5 µM.

In the case of `CO[C@@H]1C[C@@H]2C[C@H](O)CC[C@]2(C)[C@H]2CC(=O)[C@]3(C)[C@@H]([C@H](C)CCC(=O)OCC4CCCC4)CC[C@H]3[C@H]12`, the concentration giving a half-maximal response (EC50) stood at 62 µM.

For `CO[C@@H]1C[C@@H]2C[C@H](O)CC[C@]2(C)[C@H]2C[C@H](O)[C@]3(C)[C@@H]([C@H](C)CCC(=O)OC4CC4)CC[C@H]3[C@H]12`, the concentration for a half-maximal effect (EC50) was 8.9 µM.

Consider `CCOC(=O)CC[C@@H](C)[C@H]1CC[C@H]2[C@@H]3[C@H](OC)C[C@@H]4C[C@H](O)CC[C@]4(C)[C@H]3C[C@H](O)[C@]12C`, for which the concentration giving a half-maximal response (EC50) stood at 19.8 µM.

For `CCOC(=O)CC[C@@H](C)[C@H]1CC[C@H]2[C@@H]3[C@H](OC)C[C@@H]4C[C@H](O)CC[C@]4(C)[C@H]3CC(=O)[C@]12C`, the EC50 came to 31.6 µM.

`CO[C@@H]1C[C@@H]2C[C@H](O)CC[C@]2(C)[C@H]2CC(=O)[C@]3(C)[C@@H]([C@H](C)CCC(=O)OC(C)C)CC[C@H]3[C@H]12`: the concentration for a half-maximal effect (EC50) turned out to be 12 µM.

Take `CO[C@@H]1C[C@@H]2C[C@H](O)CC[C@]2(C)[C@H]2C[C@H](O)[C@]3(C)[C@@H]([C@H](C)CCC(=O)OCC4CC4)CC[C@H]3[C@H]12`: the concentration giving a half-maximal response (EC50) is 14.1 µM.

For the compound `CO[C@@H]1C[C@@H]2C[C@H](O)CC[C@]2(C)[C@H]2CC(=O)[C@]3(C)[C@@H]([C@H](C)CCC(=O)Oc4cccc5ccccc45)CC[C@H]3[C@H]12`, the 50% effective concentration (EC50) is 38 µM.

For `CO[C@@H]1C[C@@H]2C[C@H](O)CC[C@]2(C)[C@H]2C[C@H](O)[C@]3(C)[C@@H]([C@H](C)CCC(=O)OCC4CCCC4)CC[C@H]3[C@H]12`, the concentration for a half-maximal effect (EC50) was found to be 25.8 µM.

Take `CO[C@@H]1C[C@@H]2C[C@H](O)CC[C@]2(C)[C@H]2C[C@H](O)[C@]3(C)[C@@H]([C@H](C)CCC(=O)OC(C)C)CC[C@H]3[C@H]12`: the 50% effective concentration (EC50) came out at 9.8 µM.

For the compound `COC(=O)CC[C@@H](C)[C@H]1CC[C@H]2[C@@H]3[C@H](OC)C[C@@H]4C[C@H](O)CC[C@]4(C)[C@H]3CC(=O)[C@]12C`, the EC50 is 5.3 µM.

In the case of `CO[C@@H]1C[C@@H]2C[C@H](O)CC[C@]2(C)[C@H]2CC(=O)[C@]3(C)[C@@H]([C@H](C)CCC(=O)OC4CC4)CC[C@H]3[C@H]12`, the EC50 was determined as 6.3 µM.

Turning to `CO[C@@H]1C[C@@H]2C[C@H](O)CC[C@]2(C)[C@H]2C[C@H](O)[C@]3(C)[C@@H]([C@H](C)CCC(=O)OC4CCCC4)CC[C@H]3[C@H]12`, the 50% effective concentration (EC50) came to 21.8 µM.

Regarding `CO[C@@H]1C[C@@H]2C[C@H](O)CC[C@]2(C)[C@H]2C[C@H](O)[C@]3(C)[C@@H]([C@H](C)CCC(=O)OCc4ccccc4)CC[C@H]3[C@H]12`, the EC50 came out at 92.5 µM.
